Tested on: 885512-296-R-J2-PDC complex spheroid viability
Experiment: Anticancer human tumor 885512-296-R-J2-PDC patient-derived breast carcinoma cell line growth inhibition [GQUAD]
Conditions: for IC50: curve of first compound; for viability, T/C: stronger effect = lower value
Procedure, shortened: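 Tumor cells were grown as complex spheroids with HUVEC endothelial cells and mesenchymal stem cells as stroma. G-quadruplex stabilizers were combined with targeted agents over half-log dilutions from near the clinical Cmax, or from 10 microM.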

[1] = second compound 0.0316 µM, first compound 0.0316 µM
[2] = second compound 0.0316 µM, first compound 0.316 µM
[3] = second compound 0.1 µM, first compound 0.0316 µM
[4] = second compound 0.1 µM, first compound 0.316 µM
[5] = second compound 0.316 µM, first compound 0.0316 µM
[6] = second compound 0.316 µM, first compound 0.316 µM
[7] = second compound 1 µM, first compound 0.0316 µM
[8] = second compound 1 µM, first compound 0.316 µM
[9] = second compound 3.16 µM, first compound 0.0316 µM
[10] = second compound 3.16 µM, first compound 0.316 µM
[11] = second compound 10 µM, first compound 0.0316 µM
[12] = second compound 10 µM, first compound 0.316 µM
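Note: spheroids exposed to the compounds for one week.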
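Throughout, for viability, T/C: percent of tumor spheroid viability relative to DMSO vehicle control wells.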

**Q.** `Cc1cccc(N(C)C(=O)C2C(O)CCN2c2nc(C)cc(C(F)(F)F)c2C#N)c1` (centres undefined) + Cc1cnc(CNC(=O)c2c(=O)c3ccc(N4CCCN(C)CC4)nc3n3c2sc2ccccc23)cn1 was tested. Which IC50 (second compound 0.0316 µM) did it give?
**A.** Its IC50 is > 10000 nM.

**Q.** And the IC50 (second compound 0.1 µM)?
**A.** Its IC50 is > 10000 nM.

**Q.** And the IC50 (second compound 0.316 µM)?
**A.** Its IC50 is < 31.6 nM.

**Q.** What about the IC50 (second compound 1 µM) of the same compound?
**A.** The IC50 was < 31.6 nM.

**Q.** And the IC50 (second compound 3.16 µM)?
**A.** The IC50 was < 31.6 nM.

**Q.** What about the IC50 (second compound 10 µM) of the same compound?
**A.** Its IC50 is < 31.6 nM.

**Q.** What about the viability, T/C [1] of the same compound?
**A.** The viability, T/C was 93.2%.

**Q.** What about the viability, T/C (second compound 0.0316 µM, first compound 0.1 µM) of the same compound?
**A.** The viability, T/C was 86.2%.

**Q.** What about the viability, T/C [2] of the same compound?
**A.** The viability, T/C was 87.4%.

**Q.** What about the viability, T/C (second compound 0.0316 µM, first compound 1 µM) of the same compound?
**A.** The viability, T/C was 82.8%.

**Q.** And the viability, T/C (second compound 0.0316 µM, first compound 3.16 µM)?
**A.** Its viability, T/C is 91.4%.

**Q.** And the viability, T/C (second compound 0.0316 µM, first compound 10 µM)?
**A.** Its viability, T/C is 75.6%.

**Q.** And the viability, T/C [3]?
**A.** The viability, T/C was 65.8%.

**Q.** And the viability, T/C (second compound 0.1 µM, first compound 0.1 µM)?
**A.** The viability, T/C was 64.4%.

**Q.** What about the viability, T/C [4] of the same compound?
**A.** Its viability, T/C is 63.1%.

**Q.** And the viability, T/C (second compound 0.1 µM, first compound 1 µM)?
**A.** Its viability, T/C is 61.2%.

**Q.** And the viability, T/C (second compound 0.1 µM, first compound 3.16 µM)?
**A.** The viability, T/C was 52.5%.

**Q.** What about the viability, T/C (second compound 0.1 µM, first compound 10 µM) of the same compound?
**A.** The viability, T/C was 63.9%.

**Q.** What about the viability, T/C [5] of the same compound?
**A.** The viability, T/C was 31%.

**Q.** What about the viability, T/C (second compound 0.316 µM, first compound 0.1 µM) of the same compound?
**A.** The viability, T/C was 36.2%.

**Q.** What about the viability, T/C [6] of the same compound?
**A.** The viability, T/C was 35.8%.

**Q.** What about the viability, T/C (second compound 0.316 µM, first compound 1 µM) of the same compound?
**A.** Its viability, T/C is 33.9%.

**Q.** And the viability, T/C (second compound 0.316 µM, first compound 3.16 µM)?
**A.** The viability, T/C was 28.6%.

**Q.** And the viability, T/C (second compound 0.316 µM, first compound 10 µM)?
**A.** Its viability, T/C is 28.6%.

**Q.** And the viability, T/C [7]?
**A.** The viability, T/C was 26.3%.

**Q.** And the viability, T/C (second compound 1 µM, first compound 0.1 µM)?
**A.** The viability, T/C was 29%.

**Q.** What about the viability, T/C [8] of the same compound?
**A.** Its viability, T/C is 28.4%.

**Q.** And the viability, T/C (second compound 1 µM, first compound 1 µM)?
**A.** The viability, T/C was 25.6%.

**Q.** And the viability, T/C (second compound 1 µM, first compound 3.16 µM)?
**A.** The viability, T/C was 27.3%.

**Q.** And the viability, T/C (second compound 1 µM, first compound 10 µM)?
**A.** The viability, T/C was 28.7%.

**Q.** And the viability, T/C [9]?
**A.** Its viability, T/C is 43.4%.

**Q.** What about the viability, T/C (second compound 3.16 µM, first compound 0.1 µM) of the same compound?
**A.** Its viability, T/C is 25.7%.

**Q.** And the viability, T/C [10]?
**A.** The viability, T/C was 30.3%.

**Q.** What about the viability, T/C (second compound 3.16 µM, first compound 1 µM) of the same compound?
**A.** Its viability, T/C is 30.5%.

**Q.** What about the viability, T/C (second compound 3.16 µM, first compound 3.16 µM) of the same compound?
**A.** Its viability, T/C is 28.5%.

**Q.** What about the viability, T/C (second compound 3.16 µM, first compound 10 µM) of the same compound?
**A.** The viability, T/C was 30.2%.

**Q.** What about the viability, T/C [11] of the same compound?
**A.** Its viability, T/C is 0.21%.

**Q.** And the viability, T/C (second compound 10 µM, first compound 0.1 µM)?
**A.** Its viability, T/C is 0.26%.

**Q.** What about the viability, T/C [12] of the same compound?
**A.** The viability, T/C was 0.26%.

**Q.** What about the viability, T/C (second compound 10 µM, first compound 1 µM) of the same compound?
**A.** Its viability, T/C is 0.25%.

**Q.** What about the viability, T/C (second compound 10 µM, first compound 3.16 µM) of the same compound?
**A.** Its viability, T/C is 0.25%.

**Q.** And the viability, T/C (second compound 10 µM, first compound 10 µM)?
**A.** The viability, T/C was 0.25%.

**Q.** Which results are given for `Cc1[nH]c2ccccc2c1CCNCc1ccc(/C=C/C(=O)NO)cc1` + Cc1cnc(CNC(=O)c2c(=O)c3ccc(N4CCCN(C)CC4)nc3n3c2sc2ccccc23)cn1?
**A.** IC50 (second compound 0.0316 µM): 15 nM; IC50 (second compound 0.1 µM): < 0.999 nM; IC50 (second compound 0.316 µM): < 0.999 nM; IC50 (second compound 1 µM): < 0.999 nM; IC50 (second compound 3.16 µM): < 0.999 nM; IC50 (second compound 10 µM): < 0.999 nM; viability, T/C (second compound 0.0316 µM, first compound 0.000999 µM): 83.8%; viability, T/C (second compound 0.0316 µM, first compound 0.00316 µM): 80.2%; viability, T/C (second compound 0.0316 µM, first compound 0.00999 µM): 52%; viability, T/C [1]: 34.5%; viability, T/C (second compound 0.0316 µM, first compound 0.0999 µM): 27.9%; viability, T/C [2]: 5.52%; viability, T/C (second compound 0.1 µM, first compound 0.000999 µM): 52.9%; viability, T/C (second compound 0.1 µM, first compound 0.00316 µM): 43.2%; viability, T/C (second compound 0.1 µM, first compound 0.00999 µM): 38.6%; viability, T/C [3]: 36.9%; viability, T/C (second compound 0.1 µM, first compound 0.0999 µM): 29.8%; viability, T/C [4]: 6.34%; viability, T/C (second compound 0.316 µM, first compound 0.000999 µM): 27.3%; viability, T/C (second compound 0.316 µM, first compound 0.00316 µM): 16%; viability, T/C (second compound 0.316 µM, first compound 0.00999 µM): 15.3%; viability, T/C [5]: 22.8%; viability, T/C (second compound 0.316 µM, first compound 0.0999 µM): 25.1%; viability, T/C [6]: 5.41%; viability, T/C (second compound 1 µM, first compound 0.000999 µM): 17.4%; viability, T/C (second compound 1 µM, first compound 0.00316 µM): 14.9%; viability, T/C (second compound 1 µM, first compound 0.00999 µM): 19.2%; viability, T/C [7]: 15.4%; viability, T/C (second compound 1 µM, first compound 0.0999 µM): 13.9%; viability, T/C [8]: 0.1%; viability, T/C (second compound 3.16 µM, first compound 0.000999 µM): 19.2%; viability, T/C (second compound 3.16 µM, first compound 0.00316 µM): 17.6%; viability, T/C (second compound 3.16 µM, first compound 0.00999 µM): 0.21%; viability, T/C [9]: 0.22%; viability, T/C (second compound 3.16 µM, first compound 0.0999 µM): 0.15%; viability, T/C [10]: 0.13%; viability, T/C (second compound 10 µM, first compound 0.000999 µM): 0.17%; viability, T/C (second compound 10 µM, first compound 0.00316 µM): 0.17%; viability, T/C (second compound 10 µM, first compound 0.00999 µM): 0.24%; viability, T/C [11]: 0.22%; viability, T/C (second compound 10 µM, first compound 0.0999 µM): 0.22%; viability, T/C [12]: 0.23%

Source: PubChem BioAssay AID2060490 (Molecular Pharmacology Branch, DTP, NCI, 2025)
